Laboratory results taken from PubChem BioAssay (NCI).
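Abbreviation: GI50, concentration required for 50% inhibition of growth. TGI marks complete inhibition of growth.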

Experiments:
Assay in all cases: DTP human tumour cell line panel, 384-well format
OVCAR-3 ovarian = tested on: OVCAR-3 ovarian
SK-OV-3 ovarian = tested on: SK-OV-3 ovarian
U251 glioblastoma = tested on: U251 glioblastoma
UACC-62 melanoma = tested on: UACC-62 melanoma
RXF 393 renal = tested on: RXF 393 renal
HOP-62 NSCLC = tested on: HOP-62 NSCLC
SK-MEL-28 melanoma = tested on: SK-MEL-28 melanoma
SN12C renal = tested on: SN12C renal
SW-620 colon = tested on: SW-620 colon
BT-549 breast = tested on: BT-549 breast
HCC-2998 colon = tested on: HCC-2998 colon
NCI/ADR-RES ovarian = tested on: NCI/ADR-RES ovarian
786-0 renal = tested on: 786-0 renal
K-562 leukemia = tested on: K-562 leukemia
MALME-3M melanoma = tested on: MALME-3M melanoma
IGROV1 ovarian = tested on: IGROV1 ovarian
CCRF-CEM leukemia = tested on: CCRF-CEM leukemia
LOX IMVI melanoma = tested on: LOX IMVI melanoma
OVCAR-4 ovarian = tested on: OVCAR-4 ovarian
HOP-92 NSCLC = tested on: HOP-92 NSCLC
T-47D breast = tested on: T-47D breast
OVCAR-5 ovarian = tested on: OVCAR-5 ovarian
TK-10 renal = tested on: TK-10 renal
SF-268 CNS = tested on: SF-268 CNS
NCI-H322M lung = tested on: NCI-H322M lung
EKVX NSCLC = tested on: EKVX NSCLC
HCT-116 colon = tested on: HCT-116 colon
A549 NSCLC = tested on: A549 NSCLC
RPMI-8226 leukemia = tested on: RPMI-8226 leukemia
UO-31 renal = tested on: UO-31 renal
HS 578T breast = tested on: HS 578T breast
SK-MEL-5 melanoma = tested on: SK-MEL-5 melanoma
NCI-H522 lung = tested on: NCI-H522 lung
SNB-75 CNS = tested on: SNB-75 CNS
NCI-H226 lung = tested on: NCI-H226 lung
A498 renal = tested on: A498 renal
MDA-MB-468 breast = tested on: MDA-MB-468 breast
DU-145 prostate = tested on: DU-145 prostate
HL-60(TB) leukemia = tested on: HL-60(TB) leukemia
HCT-15 colon = tested on: HCT-15 colon
MCF7 breast = tested on: MCF7 breast
MDA-MB-231 breast = tested on: MDA-MB-231 breast
SF-539 CNS = tested on: SF-539 CNS
MDA-MB-435 melanoma = tested on: MDA-MB-435 melanoma
PC-3 prostate = tested on: PC-3 prostate
SNB-19 CNS = tested on: SNB-19 CNS
NCI-H23 lung = tested on: NCI-H23 lung
CAKI-1 renal = tested on: CAKI-1 renal
SF-295 CNS = tested on: SF-295 CNS
HT29 colon = tested on: HT29 colon
OVCAR-8 ovarian = tested on: OVCAR-8 ovarian
KM12 colon = tested on: KM12 colon
M14 melanoma = tested on: M14 melanoma
MOLT-4 leukemia = tested on: MOLT-4 leukemia
UACC-257 melanoma = tested on: UACC-257 melanoma
NCI-H460 NSCLC = tested on: NCI-H460 NSCLC
ACHN renal = tested on: ACHN renal
COLO 205 colon = tested on: COLO 205 colon

Work on NS(=O)(=O)OC[C@H]1C[C@@H](Nc2ccnc3cc(-c4cccc(SC(F)(F)F)c4)nn23)[C@H](O)[C@@H]1O yielded a GI50 (OVCAR-3 ovarian) of less than 10 nM, a TGI (OVCAR-3 ovarian) of less than 10 nM and a GI50 (SK-OV-3 ovarian) of 12.8 nM. It also gave a TGI (SK-OV-3 ovarian) of 25.9 nM, a GI50 (U251 glioblastoma) of less than 10 nM and a TGI (U251 glioblastoma) of less than 10 nM. It also gave a GI50 (UACC-62 melanoma) of 17 nM, a TGI (UACC-62 melanoma) of 32.2 nM and a GI50 (RXF 393 renal) of less than 10 nM. For the same compound, the TGI (RXF 393 renal) was 18.4 nM, the GI50 (HOP-62 NSCLC) was less than 10 nM and the TGI (HOP-62 NSCLC) was 11.4 nM. For the same compound, the GI50 (SK-MEL-28 melanoma) was less than 10 nM, the TGI (SK-MEL-28 melanoma) was less than 10 nM and the GI50 (SN12C renal) was 21.4 nM. It also gave a TGI (SN12C renal) of 43.7 nM, a GI50 (SW-620 colon) of 14.4 nM and a TGI (SW-620 colon) of 27.8 nM. The GI50 (BT-549 breast) was less than 10 nM, the TGI (BT-549 breast) was 16.1 nM and the GI50 (HCC-2998 colon) was 13.1 nM. For the same compound, the TGI (HCC-2998 colon) was 27.4 nM, the GI50 (NCI/ADR-RES ovarian) was 129 nM and the TGI (NCI/ADR-RES ovarian) was 260 nM. The GI50 ([…]-0 renal) was 18.7 nM, the TGI (786-0 renal) was 36.1 nM and the GI50 (K-562 leukemia) was less than 10 nM. The TGI (K-562 leukemia) was less than 10 nM, the GI50 (MALME-3M melanoma) was less than 10 nM and the TGI (MALME-3M melanoma) was 21.5 nM. The GI50 (IGROV1 ovarian) was 15.1 nM, the TGI (IGROV1 ovarian) was 30.1 nM and the GI50 (CCRF-CEM leukemia) was less than 10 nM. For the same compound, the TGI (CCRF-CEM leukemia) was less than 10 nM, the GI50 (LOX IMVI melanoma) was less than 10 nM and the TGI (LOX IMVI melanoma) was less than 10 nM. It also gave a GI50 (OVCAR-4 ovarian) of 15.9 nM, a TGI (OVCAR-4 ovarian) of 29.9 nM and a GI50 (HOP-92 NSCLC) of 12.2 nM. It also gave a TGI (HOP-92 NSCLC) of 25.4 nM, a GI50 (T-47D breast) of less than 10 nM and a TGI (T-47D breast) of 12.4 nM. The GI50 (OVCAR-5 ovarian) was 12.8 nM, the TGI (OVCAR-5 ovarian) was 34.2 nM and the GI50 (TK-10 renal) was 27.3 nM. The TGI (TK-10 renal) was 85.3 nM, the GI50 (SF-268 CNS) was less than 10 nM and the TGI (SF-268 CNS) was less than 10 nM. The GI50 (NCI-H322M lung) was 11.3 nM, the TGI (NCI-H322M lung) was 24.2 nM and the GI50 (EKVX NSCLC) was 14 nM. It also gave a TGI (EKVX NSCLC) of 28 nM, a GI50 (HCT-116 colon) of less than 10 nM and a TGI (HCT-116 colon) of 11.3 nM. It also gave a GI50 (A549 NSCLC) of 59.6 nM, a TGI (A549 NSCLC) of 191 nM and a GI50 (RPMI-8226 leukemia) of 202 nM. It also gave a TGI (RPMI-8226 leukemia) of 348 nM, a GI50 (UO-31 renal) of 20.5 nM and a TGI (UO-31 renal) of 42.1 nM. It also gave a GI50 (HS 578T breast) of 14.2 nM, a TGI (HS 578T breast) of 28.4 nM and a GI50 (SK-MEL-5 melanoma) of less than 10 nM. It also gave a TGI (SK-MEL-5 melanoma) of less than 10 nM, a GI50 (NCI-H522 lung) of less than 10 nM and a TGI (NCI-H522 lung) of less than 10 nM. The GI50 (SNB-75 CNS) was 19 nM, the TGI (SNB-75 CNS) was 34.4 nM and the GI50 (NCI-H226 lung) was less than 10 nM. The TGI (NCI-H226 lung) was less than 10 nM, the GI50 (A498 renal) was less than 10 nM and the TGI (A498 renal) was 21.2 nM. For the same compound, the GI50 (MDA-MB-468 breast) was less than 10 nM, the TGI (MDA-MB-468 breast) was less than 10 nM and the GI50 (DU-145 prostate) was less than 10 nM. For the same compound, the TGI (DU-145 prostate) was 44.9 nM, the GI50 (HL-60(TB) leukemia) was less than 10 nM and the TGI (HL-60(TB) leukemia) was less than 10 nM. The GI50 (HCT-15 colon) was 33.2 nM, the TGI (HCT-15 colon) was 117 nM and the GI50 (MCF7 breast) was 11.5 nM. For the same compound, the TGI (MCF7 breast) was 31.2 nM, the GI50 (MDA-MB-231 breast) was less than 10 nM and the TGI (MDA-MB-231 breast) was 23.4 nM. The GI50 (SF-539 CNS) was less than 10 nM, the TGI (SF-539 CNS) was less than 10 nM and the GI50 (MDA-MB-435 melanoma) was 17.4 nM. It also gave a TGI (MDA-MB-435 melanoma) of 32.7 nM, a GI50 (PC-3 prostate) of 17.5 nM and a TGI (PC-3 prostate) of 32.4 nM. For the same compound, the GI50 (SNB-19 CNS) was less than 10 nM, the TGI (SNB-19 CNS) was 20.7 nM and the GI50 (NCI-H23 lung) was 19.3 nM. It also gave a TGI (NCI-H23 lung) of 51.3 nM, a GI50 (CAKI-1 renal) of 18.9 nM and a TGI (CAKI-1 renal) of 36 nM. For the same compound, the GI50 (SF-295 CNS) was 48.1 nM, the TGI (SF-295 CNS) was 166 nM and the GI50 (HT29 colon) was 94.7 nM. For the same compound, the TGI (HT29 colon) was 222 nM, the GI50 (OVCAR-8 ovarian) was less than 10 nM and the TGI (OVCAR-8 ovarian) was 16.5 nM. For the same compound, the GI50 (KM12 colon) was 25.5 nM, the TGI (KM12 colon) was 59.7 nM and the GI50 (M14 melanoma) was 15.8 nM. The TGI (M14 melanoma) was 30.7 nM, the GI50 (MOLT-4 leukemia) was 12.9 nM and the TGI (MOLT-4 leukemia) was 26 nM. For the same compound, the GI50 (UACC-257 melanoma) was 14.7 nM, the TGI (UACC-257 melanoma) was 28.6 nM and the GI50 (NCI-H460 NSCLC) was 147 nM. It also gave a TGI (NCI-H460 NSCLC) of 286 nM, a GI50 (ACHN renal) of 59 nM and a TGI (ACHN renal) of 190 nM. It also gave a GI50 (COLO 205 colon) of less than 10 nM and a TGI (COLO 205 colon) of 14.9 nM.
